Data reported in PubChem BioAssay (NCI).
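Growth conditions: 96-well plates. Treatment: test compound, 48 hours, 5 concentrations. Analysis: linear interpolation between bracketing concentrations; unreached endpoints set to highest concentration. GI50 = concentration required for 50% inhibition of growth. TGI is the concentration that stops growth completely.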

Key:
Test in all cases: NCI tumour cell line growth inhibition, 48 h
[1] = test system: SF-295 CNS
[2] = test system: UO-31 renal
[3] = test system: CCRF-CEM leukemia
[4] = test system: NCI-H226 lung
[5] = test system: HOP-62 NSCLC
[6] = test system: PC-3 prostate
[7] = test system: OVCAR-8 ovarian
[8] = test system: SK-MEL-5 melanoma
[9] = test system: RPMI-8226 leukemia
[10] = test system: 786-0 renal
[11] = test system: HS 578T breast
[12] = test system: RXF 393 renal
[13] = test system: NCI-H23 lung
[14] = test system: SNB-75 CNS
[15] = test system: A549 NSCLC

Structure (SMILES)	TGI [1]	TGI [2]	TGI [3]	TGI [4]	TGI [5]	TGI [6]	TGI [7]	TGI [8]	TGI [9]	TGI [10]	TGI [11]	TGI [12]	TGI [13]	TGI [14]	TGI [15]	GI50 [4]	GI50 [5]	GI50 [8]	GI50 [11]	GI50 [12]
Cc1cn(CC2=NC3CCCCC3N2)c(=O)[nH]c1=O (stereo not given)	> 100 µM	> 100 µM	> 100 µM	> 100 µM	> 100 µM	> 100 µM	> 100 µM	> 100 µM	> 100 µM	> 100 µM	> 100 µM	> 100 µM	> 100 µM	> 100 µM	> 100 µM	–	–	–	–	–
COc1cccc(C2c3cc4c(cc3OC(NNC(N)=O)C2C)OCO4)c1O (stereo not given)	14 µM	> 75.3 µM	> 100 µM	9.4 µM	54 µM	> 100 µM	> 33.8 µM	8.54 µM	> 100 µM	> 69.3 µM	> 50.8 µM	34.3 µM	> 100 µM	> 69.4 µM	> 39.8 µM	–	–	–	–	–
COc1ccc(C(OC(=O)[C@H](O[Si](C)(C)C(C)(C)C)[C@@H](NC(=O)c2ccccc2)c2ccccc2)c2ccc(OC)cc2)cc1	> 100 µM	> 100 µM	> 100 µM	> 100 µM	> 100 µM	> 100 µM	> 100 µM	> 100 µM	25.1 µM	> 100 µM	> 100 µM	> 100 µM	> 100 µM	> 100 µM	> 100 µM	–	–	–	–	–
CCC(=O)N(c1ccccc1)C(C)CN1CCC(O)(c2cccc(C(F)(F)F)c2)CC1 (stereo not given)	> 100 µM	72.6 µM	50.1 µM	76.5 µM	42.3 µM	46 µM	> 100 µM	34.9 µM	45.3 µM	40.1 µM	99.7 µM	> 100 µM	47.5 µM	76.3 µM	> 100 µM	–	–	–	–	–
CCCC(=O)N(C)N=Nc1ccc(C(=O)OCC)cc1	> 100 µM	> 100 µM	> 100 µM	> 100 µM	> 100 µM	> 100 µM	> 100 µM	> 100 µM	> 100 µM	> 100 µM	> 100 µM	> 100 µM	> 100 µM	> 100 µM	> 100 µM	–	–	–	–	–
CC(C)C1CC(CO)(CNc2nc(N)nc(Cl)c2/C=N\O)C1 (stereo not given)	> 68.2 µM	36.3 µM	> 79.2 µM	51.2 µM	> 100 µM	26.5 µM	50.3 µM	2.82 µM	31.9 µM	46.4 µM	53.8 µM	55.1 µM	24.3 µM	43.6 µM	18.8 µM	–	–	–	–	–
CN1C(=O)N/C(=C\c2ccc(S(=O)(=O)N/N=C/c3ccccc3)cc2)C1=O	> 100 µM	> 100 µM	> 100 µM	> 100 µM	> 100 µM	> 100 µM	> 100 µM	27.7 µM	> 100 µM	> 100 µM	> 100 µM	98.1 µM	> 100 µM	> 100 µM	> 100 µM	–	–	–	–	–
C[C@@H](Oc1ccc(Oc2cnc3ccc(Cl)cc3n2)cc1)C(=O)O	> 100 µM	> 100 µM	> 100 µM	> 100 µM	> 100 µM	> 100 µM	> 100 µM	> 100 µM	> 100 µM	> 100 µM	> 100 µM	> 100 µM	> 100 µM	> 100 µM	> 100 µM	67.1 µM	> 85.3 µM	> 82.1 µM	69.6 µM	> 30.5 µM
